The source made the active and inactive calls. The rule behind the calls is not given here.

The term IC50 denotes the point on the concentration scale where inhibition reaches its midpoint.

Ubiquitin-conjugating enzyme E2 N (Homo sapiens), sequence (P61088 whole entry, looked up): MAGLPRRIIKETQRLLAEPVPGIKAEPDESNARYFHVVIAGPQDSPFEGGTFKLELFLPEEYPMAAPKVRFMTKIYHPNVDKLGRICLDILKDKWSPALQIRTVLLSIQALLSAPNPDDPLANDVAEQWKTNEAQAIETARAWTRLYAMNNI

The test has as its target Ubiquitin-conjugating enzyme E2 N (Homo sapiens) (UniProt P61088). Put plainly: analogue potency against UBC13 ubiquitin chains – biochemical, TR-FRET, SAR follow-up (AID 504687). The note with it: UBC13 polyubiquitin formation.
For `O=C1c2cccc3cccc(c23)C(=O)N1CCN1CCN(CC(O)COc2ccc3ccccc3c2)CC1` (centres undefined), the IC50 was 1.35 µM.
For the compound `COc1ccc2sc(N(CCCN(C)C)C(=O)c3ccc(S(=O)(=O)N(C)Cc4ccccc4)cc3)nc2c1`, the IC50 is 5.89 µM.
With `Cc1nc2ccccc2c(=O)n1NC(=O)c1ccc(OC(F)F)cc1`, the IC50 is 15 µM.
The result for `COc1ccc(C(=O)Nn2c(C)nc3ccccc3c2=O)cc1` reads 2.36 µM.
The result for `O=C(CCCCCN1C(=O)c2ccccc2C1=O)NCc1ccco1` reads 18.1 µM; that for `Cc1ccc(C)c(OCC(O)CN2CCN(CCN3C(=O)c4cccc5cccc(c45)C3=O)CC2)c1` (centres undefined), 5.46 µM.
With `COc1ccc(C)c2sc(N(CCCN(C)C)C(=O)c3ccc(S(=O)(=O)N(C)C)cc3)nc12`, the IC50 is 8.72 µM.
The result for `CC1CN(S(=O)(=O)c2ccc(NC(=O)CCCCCN3C(=O)c4ccccc4C3=O)cc2)CC(C)O1` (centres undefined) reads “inactive”.
In the case of `O=C(NCCCN1CCCCC1)C1CCN(c2ncnc3c2nc2n3CCCCC2)CC1`, the IC50 was 4.58 µM.
The result for `COc1ccc(-c2oc3ncnc(N)c3c2-c2ccccc2)cc1` reads 2.06 µM.
The result for `CCCCOC(=O)c1cccc(NC(=O)CCCCCN2C(=O)c3ccccc3C2=O)c1` reads “inactive”; that for `O=C(NCCCN1CCN(c2ccc(F)cc2)CC1)C1CCCN(c2ncnc3c2nc2n3CCCCC2)C1` (centres undefined), 1.92 µM.
The result for `CN1CCN(CCCNC(=O)c2ccc(/C=C3\Oc4ccccc4N(Cc4ccc(Cl)cc4)C3=O)cc2)CC1` reads 4.33 µM; that for `O=C(CCCCCN1C(=O)c2ccccc2C1=O)Nc1ccc(S(=O)(=O)N2CCCCC2)cc1`, 0.47 µM.
`O=C(C1CCN(c2ncnc3c2nc2n3CCCCC2)CC1)N1CCOCC1`: the IC50 result is “inactive”.
The result for `Cc1cc(OCC(O)CN2CCN(CCN3C(=O)c4cccc5cccc(c45)C3=O)CC2)ccc1C(C)C` (centres undefined) reads 9.39 µM.
The result for `O=C(CCCCCN1C(=O)c2cccc([N+](=O)[O-])c2C1=O)NCc1ccccc1` reads 16.4 µM.
The result for `O=C(CCCCCN1C(=O)c2ccccc2C1=O)Nc1nc(C2CC2)cs1` reads > 100 µM (inactive).
Consider `Cc1cc(C)c2sc(N(CCCN(C)C)C(=O)c3ccc(S(=O)(=O)N(C)Cc4ccccc4)cc3)nc2c1`, for which the IC50 is 1.51 µM.
The result for `O=C1c2cccc3cccc(c23)C(=O)N1CC1CCN(CC(O)COc2ccc3ccccc3c2)CC1` (centres undefined) reads 3.32 µM.
Consider `Cc1cc(NS(=O)(=O)c2ccc(NC(=O)CCCCCN3C(=O)c4ccccc4C3=O)cc2)nc(C)n1`, for which the IC50 was > 100 µM (inactive).
The result for `O=C(C1CCN(c2ncnc3c2nc2n3CCCCC2)CC1)N1CCN(c2ccccn2)CC1` reads “inactive”; that for `Cc1ccc(NC(=O)C2CCN(c3ncnc4c3nc3n4CCCCC3)CC2)cc1Cl`, 3.62 µM; that for `CNCc1cc(Br)c(OCC(=O)Nc2ccccc2OC)c(OC)c1`, 6.37 µM.
As for `COc1ccc(OC)c2sc(N(CCCN(C)C)C(=O)c3ccc(S(=O)(=O)N4CCc5ccccc5C4)cc3)nc12`, the IC50 was 0.79 µM.
The result for `CC(C)(C)c1ccc(OCC(O)CN2CCN(CCN3C(=O)c4cccc5cccc(c45)C3=O)CC2)cc1` (centres undefined) reads 9.47 µM.
The result for `O=C(NCC1CCN(Cc2cccc(Cl)c2)CC1)C1CCCN(c2ncnc3c2nc2n3CCCCC2)C1` (centres undefined) reads 0.93 µM; that for `O=C(CCCn1c(=O)c2ccccc2n(Cc2cccc(F)c2)c1=O)NC1CCN(Cc2ccccc2)CC1`, 0.51 µM.
The result for `Cc1ccc2nc(N(CCCN(C)C)C(=O)c3ccc4c(c3)CCCC4)sc2c1` reads 10.5 µM; that for `COc1ccccc1NC(=S)NC(=O)CCCCCN1C(=O)c2ccccc2C1=O`, > 100 µM (inactive).
In the case of `N#Cc1ccccc1Cn1c(=O)n(CCCC(=O)NC2CCN(Cc3ccccc3)CC2)c(=O)c2ccccc21`, the IC50 was 0.63 µM.
The result for `O=C(c1ccc(S(=O)(=O)N2CCCC2)cc1)N1CCC(CN2C(=O)c3cccc4cccc(c34)C2=O)CC1` reads 4.19 µM; that for `CN(C)CCCN(C(=O)c1ccc(C(=O)c2ccccc2)cc1)c1nc2cc3c(cc2s1)OCCO3`, 1.6 µM; that for `CC1CC(C)CN(C(=O)C2CCN(c3ncnc4c3nc3n4CCCCC3)CC2)C1` (centres undefined), > 100 µM (inactive).
With `COc1ccc2sc(N(CCCN(C)C)C(=O)c3ccc(S(=O)(=O)N4CCc5ccccc5C4)cc3)nc2c1`, the IC50 is 5.62 µM.
The result for `COc1cc2nc(N(CCCN(C)C)C(=O)c3ccc(S(=O)(=O)N4CCc5ccccc5C4)cc3)sc2cc1OC` reads 3.79 µM; that for `O=C(CCCCn1c(=O)c2ccccc2n(Cc2ccccc2F)c1=O)NC1CCN(Cc2ccccc2)CC1`, 2.99 µM; that for `CC(NC(=O)CCCCCN1C(=O)c2cccc([N+](=O)[O-])c2C1=O)c1ccccc1` (centres undefined), “inactive”.
The result for `Cc1ccc(-c2oc3ncnc(N)c3c2-c2ccc(C)cc2)cc1` reads 2.7 µM; that for `O=C(CCCCCN1C(=O)c2ccccc2C1=O)N1CCN(c2ccc([N+](=O)[O-])cc2)CC1`, > 100 µM (inactive).
The result for `CCOc1cccc2sc(N(CCCN(C)C)C(=O)c3ccc(S(=O)(=O)N(CC)Cc4ccccc4)cc3)nc12` reads 6.56 µM.
`CN(C)CCCN(C(=O)c1ccc(S(=O)(=O)N2CCCCCC2)cc1)c1nc2ccc(Br)cc2s1`: the half-inhibitory concentration (IC50) was 5.92 µM.
For the compound `CN(C)CCCN(C(=O)c1ccc2c(c1)CCCC2)c1nc2ccc(Cl)cc2s1`, the IC50 is 10.7 µM.
Take `Cc1cccc(OCC(O)CN2CCN(CCN3C(=O)c4cccc5cccc(c45)C3=O)CC2)c1C` (centres undefined): the half-maximal inhibitory concentration (IC50) was 4.76 µM.
The result for `COC(=O)c1ccc(OCC(O)CN2CCN(CCN3C(=O)c4cccc5cccc(c45)C3=O)CC2)cc1` (centres undefined) reads 4.61 µM.
The result for `Cc1ccc2c(c1)C1CN(C)CCC1N2C(=O)CCCN1C(=O)c2cccc3cccc(c23)C1=O` (centres undefined) reads 3.92 µM; that for `CCCCN(CC)S(=O)(=O)c1ccc(C(=O)N(CCCN(C)C)c2nc3cc(C)cc(C)c3s2)cc1`, 6.23 µM.
With `CCc1ccc(OCC(O)CN2CCC(CN3C(=O)c4cccc5cccc(c45)C3=O)CC2)cc1` (centres undefined), the IC50 was 8.76 µM.
The result for `CN(C)CCCN(C(=O)c1ccc(S(=O)(=O)N2CCCCC2)cc1)c1nc2cc3c(cc2s1)OCO3` reads 8.13 µM; that for `CCCOC(=O)c1ccc(NC(=O)CCCCCN2C(=O)c3ccccc3C2=O)cc1`, > 100 µM (inactive).
The result for `CN(C)CCCN(C(=O)c1ccc(S(=O)(=O)N2CCc3ccccc3C2)cc1)c1nc2ccc(F)cc2s1` reads 8.1 µM; that for `Cc1ccc(C)c(CN2CCC(CNC(=O)C3CCCN(c4ncnc5c4nc4n5CCCCC4)C3)CC2)c1` (centres undefined), 3.42 µM.
With `CC(=O)c1ccc(OCC(O)CN2CCN(CCN3C(=O)c4cccc5cccc(c45)C3=O)CC2)cc1` (centres undefined), the IC50 is 2.28 µM.
As for `O=C(NCC1CCN(Cc2ccccc2F)CC1)C1CCCN(c2ncnc3c2nc2n3CCCCC2)C1` (centres undefined), the IC50 is 10.7 µM.
The result for `COCCOC(=O)c1ccc(NC(=O)CCCCCN2C(=O)c3ccccc3C2=O)cc1` reads > 100 µM (inactive); that for `COc1cccc2sc(N(CCCN(C)C)C(=O)c3ccc(S(=O)(=O)N4CCc5ccccc5C4)cc3)nc12`, 1.85 µM; that for `O=C(C1COc2ccccc2O1)N1CCN(CCN2C(=O)c3cccc4cccc(c34)C2=O)CC1` (centres undefined), > 100 µM (inactive).
The result for `O=C(NCCCN1CCN(c2ccccc2)CC1)C1CCCN(c2ncnc3c2nc2n3CCCCC2)C1` (centres undefined) reads 4.28 µM.
The result for `O=C1c2cccc3cccc(c23)C(=O)N1CCN1CCN(CC(O)COc2ccc(Cl)cc2)CC1` (centres undefined) reads 0.9 µM.

Values taken from PubChem BioAssay AID504687 (Sanford-Burnham Center for Chemical Genomics, 2011).
